Values of other authors in publication PMC8453635, “Piperidine Azasugars Bearing Lipophilic Chains: Stereoselective Synthesis and Biological Activity as Inhibitors of Glucocerebrosidase (GCase)” (The Journal of Organic Chemistry, 2021).
Changes are numbered by the printed parent chain. Where two headings read alike, the source gives them in different places.

Key:
[1] = system: N370S mutant enzyme in fibroblasts; details: cited from earlier work
L444P variant = system: L444P variant; design: method as in PMID 12434014; details: cited from earlier work
lysosomal GCase = details: toward GCase; cited from earlier work
GCase = target: T1, GCase (Homo sapiens, UniProt P04062); details: cited from earlier work; for IC50: human leukocytes, same experimental protocol and substrate concentration
T1 construct: screened toward GCase in leukocytes isolated from healthy donors (controls); from tissue; host or cells: leukocytes isolated from healthy donors, disrupted by sonication
T1 sequence (P04062 40-536): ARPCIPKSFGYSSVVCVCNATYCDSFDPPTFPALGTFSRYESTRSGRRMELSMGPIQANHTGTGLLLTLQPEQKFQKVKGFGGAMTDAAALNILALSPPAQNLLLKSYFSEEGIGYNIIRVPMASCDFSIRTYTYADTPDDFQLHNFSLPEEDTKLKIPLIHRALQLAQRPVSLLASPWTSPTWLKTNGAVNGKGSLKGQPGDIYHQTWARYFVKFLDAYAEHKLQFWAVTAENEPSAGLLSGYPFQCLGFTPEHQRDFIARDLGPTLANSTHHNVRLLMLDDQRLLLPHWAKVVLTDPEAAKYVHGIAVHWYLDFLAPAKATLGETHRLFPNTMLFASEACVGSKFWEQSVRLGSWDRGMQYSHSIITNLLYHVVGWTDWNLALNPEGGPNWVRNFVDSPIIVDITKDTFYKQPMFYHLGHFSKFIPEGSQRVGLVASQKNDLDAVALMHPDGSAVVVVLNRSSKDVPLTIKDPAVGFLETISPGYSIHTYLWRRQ

wild-type fibroblasts = system: wild-type fibroblasts; design: method as in PMID 32200326; details: cited from earlier work
[2] = target: T2, GCase in fibroblasts bearing the N370S/RecNcil mutation (Homo sapiens, UniProt P04062, A495P/L483P/N409S); design: method as in PMID 30996807, PMID 32200326; details: 100 μM; cited from earlier work
T2 construct: fibroblasts derived from Gaucher patients bearing the N370S/RecNcil and L444P/L444P mutations; host or cells: fibroblasts from Gaucher disease patients, N370S/RecNcil
T2 sequence (P04062 40-536 N409S): T1 sequence (P04062 40-536) with N370S

[3] = target: T3, GCase in fibroblasts bearing the L444P/L444P mutations (Homo sapiens, UniProt P04062, L483P); design: method as in PMID 30996807, PMID 32200326; details: homozygous L444P mutation, 100 μM; cited from earlier work
T3 construct: fibroblasts derived from Gaucher patients bearing the N370S/RecNcil and L444P/L444P mutations; host or cells: fibroblasts from Gaucher disease patients, L444P/L444P
T3 sequence (P04062 40-536 L483P): T1 sequence (P04062 40-536) with L444P

## CCCCCCCCCN1C[C@H](O)[C@@H](O)[C@H](O)[C@H]1CO [compound 5, N-nonyl-DNJ]
[1]; fibroblasts, 10 μM concentration
  increase in the activity of the N370S mutant enzyme: twofold increase
L444P variant
  enhancement of intracellular activity of the L444P variant: did not enhance

## CCCCCCCCC[C@H]1NC[C@@H](O)[C@H](O)[C@H]1O [compound 7, α-1-C-nonyl-DIX]
Lysosomal GCase
  IC50: 0.0068 µM
[1]; N370S mutated fibroblasts at 10 nM
  enzyme activity increase: 1.8 fold

## CCCCCCCCN1C[C@@H](O)C(O)[C@H](O)C1 [compound 9]
GCase; human leukocytes extracts incubated with azasugars (1 mM), previously reported compounds
  GCase inhibition [%]: 98%
GCase
  IC50: 30 ± 1 µM
[1]; N370S-mutated fibroblasts at 100 μM
  activity increase: 1.25 fold
wild-type fibroblasts; 50 μM
  PC activity (enzyme activity enhancement): 1.5 fold

## CCCCCCCC[C@@H]1NC[C@@H](O)[C@@H](O)[C@@H]1O [compound 11]
GCase; ref 16 and 17
  IC50: 93.5 ± 5.3 µM

## CCCCCCCC[C@H]1NC[C@@H](O)[C@@H](O)[C@@H]1O [compound 12]
GCase; ref 16 and 17
  IC50: 29.3 ± 1.8 µM
[2]
  enzyme recovery: 1.9 fold
[3]
  enzyme recovery: 1.80 fold
wild-type fibroblasts; 100 μM
  PC activity (enzyme activity enhancement): 1.4 fold
